Measurements: US20050107423A1, “Quinolone antibacterial agents” (priority 2003, published 2005)
≈ marks a conversion by molar mass, not a printed value.

Experiments:
Experiment in all cases: Antibacterial assay, microtitration MIC (Test A)
Assay type in all cases: cell-based
M. catarrhalis BC-3531 = conditions: strain BC-3531; for MIC: Moraxella catarrhalis, BC3531, Gram Negative Bacteria, read-out: Minimum Inhibitory Concentrations M. catarrhalis BC-3531; for Minimum Inhibitory Concentrations M. catarrhalis BC-3531: Gram Negative Bacteria
Procedure: (§1) The compounds of the present invention were tested against an assortment of Gram-negative and Gram-positive organisms using standard microtitration techniques (Cohen et. al., Antimicrob., 1985;28:766; Heifetz, et. al., Antimicrob., 1974;6:124). The results of the evaluation are shown in Tables 1A and B, wherein “-” means no data.

H. influenzae HI-3542 = conditions: strain HI-3542; for MIC: Haemophilus influenzae, HI3542, Gram Negative Bacteria, read-out: Minimum Inhibitory Concentrations H. influenzae HI-3542
Procedure: as §1

E. coli EC-2549 = conditions: strain EC-2549; for MIC: Escherichia coli, EC2549, Gram Negative Bacteria, read-out: Minimum Inhibitory Concentrations E. coli EC-2549
Procedure: as §1

| MIC (M. catarrhalis BC-3531) [µg/mL] | MIC (H. influenzae HI-3542) [µg/mL] | MIC (E. coli EC-2549) [µg/mL] | SMILES | Minimum Inhibitory Concentrations M. catarrhalis BC-3531 (M. catarrhalis BC-3531) [µg/mL] | Minimum Inhibitory Concentrations H. influenzae HI-3542 (H. influenzae HI-3542; Gram Negative Bacteria) [µg/mL] | Minimum Inhibitory Concentrations E. coli EC-2549 (E. coli EC-2549; Gram Negative Bacteria) [µg/mL] |
| --- | --- | --- | --- | --- | --- | --- |
| 0.0125 (≈ 0.0308 µM) | 0.15 (≈ 0.369 µM) | 0.5 (≈ 1.23 µM) | COc1c(N2CCC(CO)(CO)C2)c(F)cc2c(=O)c(C(=O)O)cn(C3CC3)c12 [drawing 375] | – | – | – |
| 0.03 (≈ 0.072 µM) | 0.015 (≈ 0.036 µM) | 0.125 (≈ 0.3 µM) | Cc1c(N2CC(C(O)CO)C3(CC3)C2)c(F)cc2c(=O)c(C(=O)O)cn(C3CC3)c12 (stereo not drawn) [drawing 422] | – | – | – |
| – | 0.002 (≈ 0.00534 µM) | 0.06 (≈ 0.16 µM) | Cc1c(N2CCC(C(C)O)C2)c(F)cc2c(=O)c(C(=O)O)cn(C3CC3)c12 (stereo not drawn) [drawing 315] | 0.002 | – | – |
| 0.125 (≈ 0.297 µM) | 0.03 (≈ 0.0712 µM) | 0.25 (≈ 0.593 µM) | COc1c(N2C[C@@H](CO)[C@@H](CO)C2)c(F)c(N)c2c(=O)c(C(=O)O)cn(C3CC3)c12 [drawing 381] | – | – | – |
| 0.015 (≈ 0.0371 µM) | 0.008 (≈ 0.0198 µM) | 0.06 (≈ 0.148 µM) | COC[C@@H]1CN(c2c(F)cc3c(=O)c(C(=O)O)cn(C4CC4)c3c2C)C[C@@H]1CO [drawing 389] | – | – | – |
| 0.06 (≈ 0.139 µM) | 0.06 (≈ 0.139 µM) | 0.5 (≈ 1.16 µM) | COc1c(N2C[C@@H]3CC[C@@](O)(CO)[C@@H]3C2)c(F)cc2c(=O)c(C(=O)O)cn(C3CC3)c12 [drawing 449] | – | – | – |
| 0.125 (≈ 0.289 µM) | 0.015 (≈ 0.0347 µM) | 0.5 (≈ 1.16 µM) | COc1c(N2CCC(C(O)C3(O)CC3)C2)c(F)cc2c(=O)c(C(=O)O)cn(C3CC3)c12 (stereo not drawn) [drawing 328] | – | – | – |
| 0.03 (≈ 0.0697 µM) | 0.015 (≈ 0.0348 µM) | 0.125 (≈ 0.29 µM) | Cc1c(N2CC3(CO)CCCC3(CO)C2)c(F)cc2c(=O)c(C(=O)O)cn(C3CC3)c12 (stereo not drawn) [drawing 452] | – | – | – |
| 0.125 (≈ 0.309 µM) | 0.125 (≈ 0.309 µM) | 1 (≈ 2.47 µM) | COCC(O)C1CCN(c2c(F)cc3c(=O)c(C(=O)O)cn(C4CC4)c3c2C)C1 (stereo not drawn) [drawing 337] | – | – | – |
| 0.008 (≈ 0.018 µM) | 0.015 (≈ 0.0338 µM) | 0.125 (≈ 0.281 µM) | COc1c(N2CCC(C(O)C(F)(F)F)C2)c(F)cc2c(=O)c(C(=O)O)cn(C3CC3)c12 (stereo not drawn) [drawing 331] | – | – | – |
| 0.06 (≈ 0.112 µM) | 0.03 (≈ 0.0559 µM) | 0.5 (≈ 0.931 µM) | CC(=O)O[C@@H]1CC[C@H]2CN(c3c(F)cc4c(=O)c(C(=O)O)cn(-c5nc(N)c(F)cc5F)c4c3Cl)C[C@H]21 [drawing 445] | – | – | – |
| 0.008 (≈ 0.0207 µM) | 0.008 (≈ 0.0207 µM) | 0.03 (≈ 0.0776 µM) | Cc1c(N2C[C@@H]3CC[C@@H](O)[C@@H]3C2)c(F)cc2c(=O)c(C(=O)O)cn(C3CC3)c12 [drawing 442] | – | – | – |
| 0.03 (≈ 0.0731 µM) | 0.015 (≈ 0.0366 µM) | 0.125 (≈ 0.305 µM) | Cc1c(N2CCC(C(F)(F)CO)C2)c(F)cc2c(=O)c(C(=O)O)cn(C3CC3)c12 (stereo not drawn) [drawing 335] | – | – | – |
| 0.25 (≈ 0.501 µM) | 0.008 (≈ 0.016 µM) | 0.5 (≈ 1 µM) | Nc1nc(-n2cc(C(=O)O)c(=O)c3cc(F)c(N4C[C@@H](CO)[C@@H](CO)C4)c(Cl)c32)c(F)cc1F [drawing 383] | – | – | – |
| – | – | – | Cc1c(N2CC(C)(CO)C(C)(CO)C2)c(F)cc2c(=O)c(C(=O)O)cn(C3CC3)c12 (stereo not drawn) [drawing 438] | 0.25 | 0.125 | 2 |
| 0.03 (≈ 0.0745 µM) | 0.008 (≈ 0.0199 µM) | 0.125 (≈ 0.311 µM) | Cc1c(N2C[C@@H]3C[C@@H](O)[C@@H](O)[C@@H]3C2)c(F)cc2c(=O)c(C(=O)O)cn(C3CC3)c12 [drawing 446] | – | – | – |
| 0.03 (≈ 0.0606 µM) | 0.03 (≈ 0.0606 µM) | 0.25 (≈ 0.505 µM) | Nc1nc(-n2cc(C(=O)O)c(=O)c3cc(F)c(N4C[C@@H]5CC[C@@H](O)[C@@H]5C4)c(Cl)c32)c(F)cc1F [drawing 444] | – | – | – |
| 0.03 (≈ 0.0707 µM) | 0.03 (≈ 0.0707 µM) | 0.125 (≈ 0.295 µM) | Cc1c(N2CCC(C(O)C(C)(F)F)C2)c(F)cc2c(=O)c(C(=O)O)cn(C3CC3)c12 (stereo not drawn) [drawing 336] | – | – | – |
| 0.004 (≈ 0.00891 µM) | 0.004 (≈ 0.00891 µM) | 0.06 (≈ 0.134 µM) | O=C(O)c1cn(C2CC2)c2c(Cl)c(N3CCC(C(O)C(F)(F)F)C3)c(F)cc2c1=O (stereo not drawn) | – | – | – |
| 0.25 (≈ 0.556 µM) | 0.03 (≈ 0.0668 µM) | 0.5 (≈ 1.11 µM) | O=C(O)c1cn(-c2ccc(F)cc2F)c2nc(N3C[C@@H](CO)[C@@H](CO)C3)c(F)cc2c1=O [drawing 379] | – | – | – |
| 0.03 (≈ 0.0745 µM) | 0.03 (≈ 0.0745 µM) | 0.25 (≈ 0.621 µM) | COc1c(N2C[C@@H]3CC[C@@H](O)[C@@H]3C2)c(F)cc2c(=O)c(C(=O)O)cn(C3CC3)c12 [drawing 443] | – | – | – |
| 0.03 (≈ 0.0694 µM) | 0.06 (≈ 0.139 µM) | 0.25 (≈ 0.578 µM) | CCCOC[C@@H]1CN(c2c(F)cc3c(=O)c(C(=O)O)cn(C4CC4)c3c2C)C[C@@H]1CO [drawing 391] | – | – | – |
| 0.015 (≈ 0.0384 µM) | 0.008 (≈ 0.0205 µM) | 0.125 (≈ 0.32 µM) | COc1c(N2CCC(C(C)O)C2)c(F)cc2c(=O)c(C(=O)O)cn(C3CC3)c12 (stereo not drawn) [drawing 316] | – | – | – |
| 1 (≈ 2.56 µM) | 0.5 (≈ 1.28 µM) | 4 (≈ 10.2 µM) | Cc1c(N2CCC(C(O)CO)C2)c(F)cc2c(=O)c(C(=O)O)cn(C3CC3)c12 (stereo not drawn) [drawing 323] | – | – | – |
| 0.015 (≈ 0.0371 µM) | 0.008 (≈ 0.0198 µM) | 0.06 (≈ 0.148 µM) | COC[C@H]1CN(c2c(F)cc3c(=O)c(C(=O)O)cn(C4CC4)c3c2C)C[C@H]1CO [drawing 387] | – | – | – |
